# Test results as given in article PMC7181660, “A novel specific PERK activator reduces toxicity and extends survival in Huntington's disease models” (Scientific Reports, 2020).
# Tests used:
# Assay in all cases: biochemical
# Type in all cases: biochemical
# [1] = target: panel of 391 kinases (Homo sapiens, UniProt O60285); conditions: ARK5/NUAK1, MK-28 1 µM, ATP 1 µM
# [2] = target: panel of 391 kinases (Homo sapiens, UniProt P45984); conditions: JNK2, MK-28 1 µM, ATP 1 µM
# [3] = target: panel of 391 kinases (Homo sapiens, UniProt P35626); conditions: GRK3, MK-28 1 µM, ATP 1 µM
# [4] = target: panel of 391 kinases (Homo sapiens, UniProt Q9BXA6); conditions: SSTK/TSSK6, MK-28 1 µM, ATP 1 µM
# [5] = target: panel of 391 kinases (Homo sapiens, UniProt Q8NE63); conditions: HIPK4, MK-28 1 µM, ATP 1 µM
# [6] = target: panel of 391 kinases (Homo sapiens, UniProt Q86Y07); conditions: VRK2, MK-28 1 µM, ATP 1 µM
# [7] = target: panel of 391 kinases (Homo sapiens, UniProt Q9UK32); conditions: RSK4, MK-28 1 µM, ATP 1 µM
# [8] = target: panel of 391 kinases (Homo sapiens, UniProt P07948); conditions: LYN, MK-28 1 µM, ATP 1 µM
# [9] = target: panel of 391 kinases (Homo sapiens, UniProt P29323); conditions: EPHB2, MK-28 1 µM, ATP 1 µM
# [10] = target: panel of 391 kinases (Homo sapiens, UniProt Q9Y5S2); conditions: MRCKb/CDC42BPB, MK-28 1 µM, ATP 1 µM
# [11] = target: panel of 391 kinases (Homo sapiens, UniProt Q07912); conditions: ACK1, MK-28 1 µM, ATP 1 µM
# [12] = target: panel of 391 kinases (Homo sapiens, UniProt O95835); conditions: LATS1, MK-28 1 µM, ATP 1 µM
# [13] = target: panel of 391 kinases (Homo sapiens, UniProt Q96GD4); conditions: Aurora B, MK-28 1 µM, ATP 1 µM
# [14] = target: panel of 391 kinases (Homo sapiens, UniProt Q86Z02); conditions: HIPK1, MK-28 1 µM, ATP 1 µM
# [15] = target: panel of 391 kinases (Homo sapiens, UniProt Q16620); conditions: TRKB, MK-28 1 µM, ATP 1 µM
# [16] = target: panel of 391 kinases (Homo sapiens, UniProt Q8WTQ7); conditions: GRK7, MK-28 1 µM, ATP 1 µM
# [17] = target: panel of 391 kinases (Homo sapiens, UniProt P80192); conditions: MLK1/MAP3K9, MK-28 1 µM, ATP 1 µM
# [18] = target: panel of 391 kinases (Homo sapiens, UniProt Q9NQU5); conditions: PAK6, MK-28 1 µM, ATP 1 µM
# [19] = target: panel of 391 kinases (Homo sapiens, UniProt P07949); conditions: RET, MK-28 1 µM, ATP 1 µM
# [20] = target: panel of 391 kinases (Homo sapiens, UniProt Q96PY6); conditions: NEK1, MK-28 1 µM, ATP 1 µM
# [21] = target: panel of 391 kinases (Homo sapiens, UniProt P49841); conditions: GSK3b, MK-28 1 µM, ATP 1 µM
# [22] = target: panel of 391 kinases (Homo sapiens, UniProt P51617); conditions: IRAK1, MK-28 1 µM, ATP 1 µM
# [23] = target: panel of 391 kinases (Homo sapiens, UniProt Q9UKE5); conditions: TNIK, MK-28 1 µM, ATP 1 µM
# [24] = target: panel of 391 kinases (Homo sapiens, UniProt P51817); conditions: PRKX, MK-28 1 µM, ATP 1 µM
# [25] = target: panel of 391 kinases (Homo sapiens, UniProt Q05397); conditions: FAK/PTK2, MK-28 1 µM, ATP 1 µM
# [26] = target: panel of 391 kinases (Homo sapiens, UniProt P19784); conditions: CK2a2, MK-28 1 µM, ATP 1 µM
# [27] = target: panel of 391 kinases (Homo sapiens, UniProt P19525); conditions: kinase EIF2AK2, compound at 1 µM, single dose in duplicates, 1 µM ATP
# [28] = read-out: % Enzyme Activity (relative to DMSO controls)
smiles,measurement,setting,value
CN(/N=C\c1ccc(O)c(O)c1)c1nc(-c2ccccc2)cc(-c2ccccc2)n1 [MK-28],% Enzyme Activity (relative to DMSO controls),[1],91.19%
same,remaining activity at 1 µM,[1]; [28],93.8%
same,% Enzyme Activity (relative to DMSO controls),[2],90.48%
same,remaining activity at 1 µM,[2]; [28],90.8%
same,% Enzyme Activity (relative to DMSO controls),[3],99.99%
same,remaining activity at 1 µM,[3]; [28],102%
same,% Enzyme Activity (relative to DMSO controls),[4],97.30%
same,remaining activity at 1 µM,[4]; [28],97.6%
same,% Enzyme Activity (relative to DMSO controls),[5],97.91%
same,remaining activity at 1 µM,[5]; [28],98.4%
same,% Enzyme Activity (relative to DMSO controls),[6],96.44%
same,remaining activity at 1 µM,[6]; [28],97%
same,% Enzyme Activity (relative to DMSO controls),[7],101.39%
same,remaining activity at 1 µM,[7]; [28],102%
same,% Enzyme Activity (relative to DMSO controls),[8],96.29%
same,remaining activity at 1 µM,[8]; [28],96.5%
same,% Enzyme Activity (relative to DMSO controls),[9],94.59%
same,remaining activity at 1 µM,[9]; [28],95.4%
same,% Enzyme Activity (relative to DMSO controls),[10],100.39%
same,remaining activity at 1 µM,[10]; [28],101%
same,% Enzyme Activity (relative to DMSO controls),[11],98.95%
same,remaining activity at 1 µM,[11]; [28],113%
same,% Enzyme Activity (relative to DMSO controls),[12],99.22%
same,remaining activity at 1 µM,[12]; [28],101%
same,% Enzyme Activity (relative to DMSO controls),[13],106.50%
same,remaining activity at 1 µM,[13]; [28],107%
same,% Enzyme Activity (relative to DMSO controls),[14],100.46%
same,remaining activity at 1 µM,[14]; [28],101%
same,% Enzyme Activity (relative to DMSO controls),[15],96.28%
same,remaining activity at 1 µM,[15]; [28],96.3%
same,% Enzyme Activity (relative to DMSO controls),[16],97.74%
same,remaining activity at 1 µM,[16]; [28],98.5%
same,% Enzyme Activity (relative to DMSO controls),[17],91.08%
same,remaining activity at 1 µM,[17]; [28],91.3%
same,% Enzyme Activity (relative to DMSO controls),[18],97.64%
same,remaining activity at 1 µM,[18]; [28],98%
same,% Enzyme Activity (relative to DMSO controls),[19],98.07%
same,remaining activity at 1 µM,[19]; [28],99.2%
same,% Enzyme Activity (relative to DMSO controls),[20],92.29%
same,remaining activity at 1 µM,[20]; [28],94.7%
same,% Enzyme Activity (relative to DMSO controls),[21],63.98%
same,remaining activity at 1 µM,[21]; [28],70.3%
same,% Enzyme Activity (relative to DMSO controls),[22],84.75%
same,remaining activity at 1 µM,[22]; [28],88.3%
same,% Enzyme Activity (relative to DMSO controls),[23],100.50%
same,remaining activity at 1 µM,[23]; [28],102%
same,% Enzyme Activity (relative to DMSO controls),[24],101.69%
same,remaining activity at 1 µM,[24]; [28],104%
same,% Enzyme Activity (relative to DMSO controls),[25],97.96%
same,remaining activity at 1 µM,[25]; [28],98.1%
same,% Enzyme Activity (relative to DMSO controls),[26],73.33%
same,remaining activity at 1 µM,[26]; [28],78%
same,% Enzyme Activity (relative to DMSO controls),[27],97.81%
same,remaining activity at 1 µM,[27]; [28],99%
